{"source": "paper PMC6813925", "about": "“Zearalenone and ß-Zearalenol But Not Their Glucosides Inhibit Heat Shock Protein 90 ATPase Activity” (Frontiers in Pharmacology, 2019)", "key": {"yeast strain YZGA515": {"tested_on": "yeast strain YZGA515", "assay": "Yeast spotting assay for RAD toxicity", "assay_type": "cell-based, Saccharomyces cerevisiae", "conditions": "multiple-ABC-transporter-deficient yeast strain, SC-LEU plates with 40 mg/L RAD", "text": "(§1) Previously, we had shown that AtUGT73C6, when expressed in a multiple-ABC-transporter–deficient yeast strain, leads to the production of ZEN-14-glucoside [old nomenclature ZEN-4-glucoside, [Metzler (2011)]] after ZEN treatment ([Poppenberger et al., 2006]). […] We therefore generated RAD-glucoside for in vitro tests. […] Therefore, we were unable to determine at which position RAD was glucosylated.\nSpotting of YZGA515 transformants (three serial 10^−1 dilutions) expressing either AtUGT73C6 (upper row) or containing the empty vector."}, "[1]": {"assay": "Solubility and handling stability observations", "assay_type": "physicochemical", "text": "as §1"}, "AtHSP90.1 [2]": {"target": "T1, AtHSP90.1 (Arabidopsis thaliana, UniProt P27323)", "T1 construct": "The coding region of AtHSP90.1 (At5g52640) was amplified from cDNA; 6xHis; made in house; host or cells: Escherichia coli BL21 (DE3) or phosphatase-deficient strain K894", "T1 sequence (P27323 whole entry)": "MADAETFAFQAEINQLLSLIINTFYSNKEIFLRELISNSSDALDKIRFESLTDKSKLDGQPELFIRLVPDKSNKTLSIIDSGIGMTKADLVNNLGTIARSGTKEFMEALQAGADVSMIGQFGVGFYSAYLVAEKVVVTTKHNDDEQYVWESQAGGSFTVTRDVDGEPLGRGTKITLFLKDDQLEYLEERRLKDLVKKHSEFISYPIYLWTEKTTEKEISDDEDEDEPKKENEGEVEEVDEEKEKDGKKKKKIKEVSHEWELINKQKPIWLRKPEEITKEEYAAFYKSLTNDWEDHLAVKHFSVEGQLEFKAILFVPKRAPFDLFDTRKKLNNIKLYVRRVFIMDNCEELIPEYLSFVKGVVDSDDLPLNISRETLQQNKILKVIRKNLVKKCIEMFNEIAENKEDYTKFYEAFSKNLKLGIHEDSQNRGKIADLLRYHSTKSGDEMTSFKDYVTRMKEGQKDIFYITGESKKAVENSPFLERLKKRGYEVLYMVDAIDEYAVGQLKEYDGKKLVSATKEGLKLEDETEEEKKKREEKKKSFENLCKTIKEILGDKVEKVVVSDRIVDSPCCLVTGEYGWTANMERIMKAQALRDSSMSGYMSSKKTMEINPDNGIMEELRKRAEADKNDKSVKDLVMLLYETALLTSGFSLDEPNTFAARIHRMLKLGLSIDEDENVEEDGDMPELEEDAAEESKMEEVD", "assay": "HSP90 ATPase activity assay (malachite green), AtHSP90.1", "assay_type": "biochemical", "text": "(§2) For initial experiments, we expressed and purified the Saccharomyces cerevisiae ScHsp82 protein. The HSP82 coding region was amplified using the primer pair HSP82-1fwd (5’-[…]-3’) and HSP82-2rev (5’-[…]-3’), which contain BamHI and HindIII sites (underlined), respectively. The resulting 2,156 bp fragment was digested with BamHI and HindIII and ligated into the expression vector pQE-80L (Qiagen) cleaved with the same enzymes yielding plasmid pGW870. The coding region of AtHSP90.1 (At5g52640) was amplified from cDNA with the oligonucleotide primers 5’-[…]-3’ and 5’-[…]-3’. The resulting PCR product was digested with NdeI and SpeI (restriction sites on primers underlined) and introduced to pQE-80L (Qiagen), cleaved with the same enzymes to obtain the construct pQE80:AtHSP90.1. The cDNA of wheat HSP90 gene TaHSP90-2 (Triticum aestivum; DQ665784.1) was amplified with 5’-[…]-3’ and 5’-[…]-3’ (NdeI and SpeI, respectively) and introduced to pQE-80L. All constructs were verified by sequencing.\n(§3) Protein production was induced by isopropyl β-D-1-thiogalactopyranoside (IPTG) following the supplier’s instructions. Protein purification was performed on an Äkta system (GE Healthcare, Uppsala, Sweden). […] Further purification was done by anion exchange chromatography on a 1 ml Resource Q column (GE Healthcare). Proteins were bound to the column in 25 mM Tris/Cl pH 7.5 and eluted with a linear gradient of 0–1 M NaCl in 15 column volumes. The obtained fractions were desalted using a Sephadex™ G-25 fine column, and the purified recombinant proteins were stored in the final elution buffer (25 mM Tris/Cl pH 7.5) at 4°C.\nThe ATPase activities of recombinant proteins AtHSP90.1, TaHSP90-2, and ScHsp82 were assayed following the method of [Rowlands et al. (2004)] using an ATP concentration of 1 mM. […] After this time, the released inorganic phosphate was quantified with the malachite green colorimetric assay ([Rowlands et al., 2004]). The reaction was stopped by adding 10 µl of 34% sodium citrate to each well after 20 min incubation at room temperature, and the absorbance was measured at 620 nm. […]"}, "TaHSP90-2": {"target": "TaHSP90-2 (Triticum aestivum, UniProt A0ACM8QAI9)", "sequence (A0ACM8QAI9 1-700)": "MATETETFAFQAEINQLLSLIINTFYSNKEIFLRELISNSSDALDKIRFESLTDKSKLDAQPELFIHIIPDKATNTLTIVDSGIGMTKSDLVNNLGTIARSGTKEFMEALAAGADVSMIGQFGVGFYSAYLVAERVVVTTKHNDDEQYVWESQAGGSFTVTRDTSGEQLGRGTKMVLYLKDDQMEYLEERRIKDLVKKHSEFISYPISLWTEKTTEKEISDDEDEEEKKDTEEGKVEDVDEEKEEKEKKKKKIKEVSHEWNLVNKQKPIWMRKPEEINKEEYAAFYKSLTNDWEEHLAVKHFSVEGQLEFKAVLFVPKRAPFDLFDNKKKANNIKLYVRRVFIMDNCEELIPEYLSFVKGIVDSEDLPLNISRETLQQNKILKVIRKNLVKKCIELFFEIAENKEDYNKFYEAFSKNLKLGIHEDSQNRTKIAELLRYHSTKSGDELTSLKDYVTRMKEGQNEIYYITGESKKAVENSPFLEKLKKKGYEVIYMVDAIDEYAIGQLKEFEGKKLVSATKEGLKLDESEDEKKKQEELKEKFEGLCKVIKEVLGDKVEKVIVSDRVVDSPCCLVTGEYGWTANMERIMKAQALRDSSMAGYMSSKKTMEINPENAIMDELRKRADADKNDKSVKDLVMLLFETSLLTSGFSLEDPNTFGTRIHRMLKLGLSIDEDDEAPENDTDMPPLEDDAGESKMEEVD", "assay": "biochemical", "conditions": "for ATPase inhibition of TaHSP90-2: Figure 4B-D; for remaining activity at 100 µM: read-out: remaining (residual) ATPase activity of TaHSP90-2", "text": "as §2, §3\n(§4) The ATPase activities of recombinant proteins AtHSP90.1, TaHSP90-2, and ScHsp82 were assayed following the method of [Rowlands et al. (2004)] using an ATP concentration of 1 mM. The effect of several potential inhibitors was tested in 96-well plates using toxin concentrations ranging from 1 to 150 µM. All compounds were dissolved in 20% DMSO and further diluted. The assays were performed in a total volume of 25 µl with a final protein concentration of 0.2 µg/µl and 4% DMSO. Controls were incubated with the solvent DMSO without inhibitor. The reactions were incubated at 37°C for 3 h in the dark. After this time, the released inorganic phosphate was quantified with the malachite green colorimetric assay ([Rowlands et al., 2004]). The reaction was stopped by adding 10 µl of 34% sodium citrate to each well after 20 min incubation at room temperature, and the absorbance was measured at 620 nm.\nTo test whether the yeast model reflects the situation in dicot and monocots plants, AtHSP90.1 and an HSP90 protein from wheat were expressed and purified. The wheat cDNA previously named “TaHSP90-2” corresponds to UniProtKB Q0Q0I7 (Q0Q0I7_WHEAT). This gene belongs to a family of nine highly similar cytosolic HSP90 proteins of wheat, has been named HSP90.3-D1 in a functional study ([Wang et al., 2011]), and is located on chromosome 5D (= EnsemblPlants Traes_5DL_89CF7F5DE)."}, "AtHSP90.1 [3]": {"tested_on": "AtHSP90.1", "assay": "Quantitative real-time PCR of AtHSP90.1 in seedlings", "assay_type": "cell-based, Arabidopsis thaliana", "conditions": "50 µM, 2 h, vs mock control DMSO, reference gene AT5G46630", "description": "A. thaliana (ecotype Columbia, Col-0) seeds were surface-sterilized using sodium hypochlorite (2%) plus 0.01% Triton X for 10 min and rinsed twice with sterile water. Seeds were distributed in 24-well plates (4 wells per treatment, 30–40 seeds per well) and re-suspended in 1 ml (per well) of liquid Murashige and Skoog medium (“MS” basal salt mixture, Sigma) supplemented with 1% sucrose. After 2 days of stratification at 4°C, the plates were transferred to a growth chamber at 21°C under a 16 h light/8 h dark photoperiod.\nTotal RNA was extracted from 13-day-old A. thaliana (Col-0) seedlings grown in liquid MS medium supplemented with 2.5% sucrose and 50 μM ZEN for 2 h. […] RNA was quantified with the Qubit (Invitrogen) and NanoDrop (Peqlab) systems. […] Absolute and relative expression were calculated with a dilution series of purified AtHSP90.1 and AP2M PCR fragments of known molar concentration in each RT-qPCR run. […] Each sample was measured in triplicate from four independent cDNAs. […]\nFigure 2 Transcriptional response of Arabidopsis thaliana HSP90 genes to zearalenone (ZEN). […] (B) Quantitative real-time PCR of A. thaliana HSP90.1 after 2 h treatment with ZEN (50 µM) or DMSO. The results are expressed as relative expression to the reference gene ADAPTOR PROTEIN-2 MU-ADAPTIN (AP2M; AT5G46630) and represent the means of four biological replicates ± standard deviation."}, "ScHsp82p": {"target": "T2, ScHsp82p (Saccharomyces cerevisiae, UniProt P02829)", "T2 construct": "The HSP82 coding region was amplified using the primer pair HSP82-1fwd; 6xHis (N); made in house; host or cells: Escherichia coli BL21 (DE3) or phosphatase-deficient strain K894", "T2 sequence (P02829 whole entry, the tested form may be a part)": "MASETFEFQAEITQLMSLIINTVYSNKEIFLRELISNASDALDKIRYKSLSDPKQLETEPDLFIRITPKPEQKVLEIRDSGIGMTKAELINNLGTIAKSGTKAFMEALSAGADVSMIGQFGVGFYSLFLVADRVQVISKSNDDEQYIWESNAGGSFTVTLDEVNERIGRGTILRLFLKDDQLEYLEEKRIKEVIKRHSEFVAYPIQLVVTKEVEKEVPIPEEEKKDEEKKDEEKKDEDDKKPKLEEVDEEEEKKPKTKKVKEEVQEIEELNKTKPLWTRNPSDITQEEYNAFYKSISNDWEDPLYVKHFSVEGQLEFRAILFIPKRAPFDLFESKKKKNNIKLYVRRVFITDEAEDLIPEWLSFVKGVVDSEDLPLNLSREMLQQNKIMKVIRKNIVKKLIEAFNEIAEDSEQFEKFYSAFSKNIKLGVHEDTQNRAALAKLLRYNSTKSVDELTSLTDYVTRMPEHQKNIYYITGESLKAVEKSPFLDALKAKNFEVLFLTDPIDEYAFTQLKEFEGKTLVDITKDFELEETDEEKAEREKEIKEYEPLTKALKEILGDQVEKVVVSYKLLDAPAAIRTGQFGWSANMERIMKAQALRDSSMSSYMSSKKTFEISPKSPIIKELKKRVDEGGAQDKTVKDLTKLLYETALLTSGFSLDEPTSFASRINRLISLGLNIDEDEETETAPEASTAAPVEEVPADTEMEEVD", "assay": "biochemical", "assay_type": "biochemical", "conditions": "for remaining ATPase activity of ScHsp82p: at 100 µM, relative to DMSO control", "text": "as §2, with “The resulting 2,156 bp fragment was digested with BamHI and HindIII and ligated into the expression vector pQE-80L (Qiagen) cleaved with the same enzymes yielding plasmid pGW870.” left out\nas §3\nAll compounds were dissolved in 20% DMSO and further diluted. The assays were performed in a total volume of 25 µl with a final protein concentration of 0.2 µg/µl and 4% DMSO. Controls were incubated with the solvent DMSO without inhibitor. The reactions were incubated at 37°C for 3 h in the dark."}, "AtHSP90.1 [4]": {"tested_on": "AtHSP90.1", "parameters": "method as in Werner, 2005", "conditions": "50 µM, 2 h, vs DMSO; ref Werner, 2005; cited from earlier work"}, "[5]": {"tested_on": "Arabidopsis thaliana plants containing RPS2", "parameters": "method as in Takahashi et al., 2003", "conditions": "10 μM; ref Takahashi et al., 2003; cited from earlier work"}, "[6]": {"assay": "Stability of glucosides under ATPase assay conditions (LC-MS/MS before and after incubation)", "assay_type": "physicochemical", "conditions": "LC-MS/MS before and after incubation period, p = 0.21", "description": "as §4\nLikewise, we found all glucosides of ZEN, αZEL, and βZEL stable under identical conditions, with recoveries of > 88%, p > 0.05, in each case."}}}
{"compound": "C[C@@H]1C[C@H]2O[C@@H]2/C=C\\C=C\\C(=O)Cc2c(Cl)c(O)cc(O)c2C(=O)O1", "note": "[RAD, radicicol, reference compound]", "values": [{"measurement": "toxicity to yeast strain", "setting": "yeast strain YZGA515", "value": "toxic"}, {"measurement": "solubility in medium", "setting": "[1]; yeast culture medium", "value": "limited solubility"}]}
{"compound": "C[C@H]1CCCC(=O)CCC/C=C/c2cc(O[C@@H]3O[C@H](CO)[C@@H](O)[C@H](O)[C@H]3O)cc(O)c2C(=O)O1", "note": "[ZEN14G, zearalenone-14-O-ß-D-glucopyranoside]", "values": [{"measurement": "ATPase inhibition of AtHSP90.1", "setting": "AtHSP90.1 [2]; 100 µM, p = 0.75", "value": "inactive"}, {"measurement": "ATPase inhibition of TaHSP90-2", "setting": "TaHSP90-2", "value": "did not cause activity reduction"}]}
{"compound": "C[C@H]1CCCC(=O)CCC/C=C/c2cc(O)cc(O[C@@H]3O[C@H](CO)[C@@H](O)[C@H](O)[C@H]3O)c2C(=O)O1", "note": "[ZEN16G, zearalenone-16-O-ß-D-glucopyranoside]", "values": [{"measurement": "ATPase inhibition of TaHSP90-2", "setting": "TaHSP90-2", "value": "did not cause activity reduction"}]}
{"compound": "C[C@H]1CCCC(=O)CCC/C=C/c2cc(O)cc(O)c2C(=O)O1", "note": "[ZEN, zearalenone]", "values": [{"measurement": "IC50", "setting": "AtHSP90.1 [2]", "value": "~10", "unit": "µM"}, {"measurement": "remaining ATPase activity of AtHSP90.1", "setting": "AtHSP90.1 [2]; at 100 µM", "value": "18 ± 6", "unit": "%"}, {"measurement": "induction of AtHSP90.1 (quantitative real-time PCR)", "setting": "AtHSP90.1 [3]", "value": 35, "unit": "fold"}, {"measurement": "remaining ATPase activity of ScHsp82p", "setting": "ScHsp82p", "value": "59 ± 5", "unit": "%"}, {"measurement": "IC50", "setting": "TaHSP90-2", "value": 20, "unit": "µM"}, {"measurement": "remaining activity at 100 µM", "setting": "TaHSP90-2", "value": "12 ± 5", "unit": "%"}, {"measurement": "induction of AtHSP90.1 (microarray)", "setting": "AtHSP90.1 [4]", "value": "about 3.7 fold"}]}
{"compound": "COC1=C2C[C@@H](C)C[C@H](OC)[C@H](O)[C@@H](C)/C=C(\\C)[C@H](OC(N)=O)[C@@H](OC)/C=C\\C=C(/C)C(=O)NC(=CC1=O)C2=O", "note": "[geldanamycin]", "values": [{"measurement": "hypersensitive response triggered by Pseudomonas syringae DC3000 (avrRpt2)", "setting": "[5]", "value": "diminished"}]}
{"compound": "C[C@H]1CCC[C@@H](O)CCC/C=C/c2cc(O)cc(O)c2C(=O)O1", "note": "[ßZEL, ß-zearalenol]", "values": [{"measurement": "remaining ATPase activity of ScHsp82p", "setting": "ScHsp82p", "value": "8.6 ± 2.4", "unit": "%"}, {"measurement": "IC50", "setting": "ScHsp82p; recombinant 6xHis ScHsp82p, 1 mM ATP, 37°C, 3 h, read-out: IC50, ATPase inhibition of ScHsp82p", "value": "~15", "unit": "µM"}, {"measurement": "IC50", "setting": "TaHSP90-2", "value": "~10", "unit": "µM"}, {"measurement": "remaining activity at 100 µM", "setting": "TaHSP90-2", "value": "0.7 ± 3.3", "unit": "%"}]}
{"compound": "C[C@H]1CCC[C@H](O)CCC/C=C/c2cc(O)cc(O)c2C(=O)O1", "note": "[αZEL, α-zearalenol]", "values": [{"measurement": "ATPase inhibition of ScHsp82p", "setting": "ScHsp82p; toxin concentrations 1 to 150 µM", "value": "did not elicit a detectable response"}, {"measurement": "remaining activity at 100 µM", "setting": "TaHSP90-2", "value": "71 ± 6", "unit": "%"}]}
{"compound": "radicicol-glucoside [RAD-glucoside]", "values": [{"measurement": "change in concentration under assay conditions", "setting": "[6]", "value": "no significant"}, {"measurement": "stability on handling", "setting": "[1]; particularly when brought to dryness", "value": "appears unstable"}]}
